Assay results from PMC10840383, “Clinical features, functional consequences, and rescue pharmacology of missense GRID1 and GRID2 human variants” (Human Molecular Genetics, 2023).
Entries after “also recorded” stand apart in the source; their conditions may differ.

Biological target: T1, GluD2-A654T-D535E (Rattus norvegicus, UniProt Q63226, A654T/D535E)
T1 construct: expressed in transfected cells; host or cells: Xenopus laevis oocytes injected with cRNA
T1 sequence (Q63226 24-1007 D535E/A654T): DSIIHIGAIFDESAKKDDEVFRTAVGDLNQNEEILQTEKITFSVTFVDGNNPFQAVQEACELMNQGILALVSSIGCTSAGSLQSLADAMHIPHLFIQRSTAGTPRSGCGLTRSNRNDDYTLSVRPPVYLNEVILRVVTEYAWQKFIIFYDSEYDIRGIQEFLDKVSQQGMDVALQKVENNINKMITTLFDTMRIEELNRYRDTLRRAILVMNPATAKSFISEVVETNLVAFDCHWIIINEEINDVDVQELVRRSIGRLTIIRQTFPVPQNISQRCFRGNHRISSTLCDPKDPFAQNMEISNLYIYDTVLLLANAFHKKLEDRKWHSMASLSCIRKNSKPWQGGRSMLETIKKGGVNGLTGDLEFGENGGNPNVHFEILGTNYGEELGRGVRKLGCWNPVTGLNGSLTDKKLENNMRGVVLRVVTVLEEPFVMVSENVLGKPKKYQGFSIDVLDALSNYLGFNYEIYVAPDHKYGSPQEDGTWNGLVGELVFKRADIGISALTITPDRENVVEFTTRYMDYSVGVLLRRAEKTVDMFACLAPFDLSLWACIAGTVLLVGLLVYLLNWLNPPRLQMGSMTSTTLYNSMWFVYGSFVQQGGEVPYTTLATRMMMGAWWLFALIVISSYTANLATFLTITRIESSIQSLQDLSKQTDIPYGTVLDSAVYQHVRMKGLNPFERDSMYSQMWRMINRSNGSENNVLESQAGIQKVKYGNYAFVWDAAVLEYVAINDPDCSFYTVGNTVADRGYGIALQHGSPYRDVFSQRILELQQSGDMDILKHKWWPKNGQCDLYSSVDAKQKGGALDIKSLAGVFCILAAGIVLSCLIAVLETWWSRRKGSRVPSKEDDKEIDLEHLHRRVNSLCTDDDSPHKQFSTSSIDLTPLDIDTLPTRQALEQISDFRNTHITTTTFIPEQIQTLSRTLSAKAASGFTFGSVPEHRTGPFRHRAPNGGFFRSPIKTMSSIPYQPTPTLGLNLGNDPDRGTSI
Experiment: TEVC of constitutive current, Xenopus oocytes expressing GluD2-A654T-D535E
Format: cell-based
Conditions: for Effect on constitutive current, in words: compared to GluD2-A654T
Excerpt: Human GluD1 (GRID1) and rat GluD2 (Grid2) cDNAs were introduced into the pGEM-HE and pCI-neo vectors. GRID1 (NM_017551.3) gene fragments were synthesized by Integrated DNA Technologies and cloned into empty vectors using InFusion cloning (Clontech). […] However, rat and human GluD2-encoding cDNA are identical in the M3 domain in which many of the variants we studied reside (see Supplementary Fig. S1). The full open reading frame for both constructs were verified by Sanger sequencing (Eurofins) and the full plasmid sequence was verified by whole plasmid sequencing (plasmidsaurus). Variant cDNA changes identified in patients were introduced into the cloned human GRID1 (NM_017551.3) in pGEM-HE and cloned rat Grid2 cDNA sequence (NM_024379.1) in pGEM-HE vector using Quikchange Lightning (Agilent) protocol according to the manufacturer’s instructions. Vectors were linearized and cRNA was synthesized using T7 RNA mMESSAGE kit (Invitrogen).
Xenopus laevis oocytes were prepared from ovaries purchased from Xenopus 1 (Dexter, MI) as previously described, [68] and incubated at 16°C in culture Barth’s solution (in mM) 88 NaCl, 2.4 NaHCO3, 1 KCl, 0.33 Ca(NO3)2, 0.41 CaCl2, 0.82 MgSO4, 10 HEPES, pH 7.4 with NaOH, supplemented with 1 U/ml penicillin and 1 μg/ml streptomycin. Oocytes were injected with approximately 5–40 ng RNA per oocyte and then incubated at 16–19°C for 1–3 days in culture Barth’s solution. […] Two-electrode voltage clamp (TEVC) recordings were performed as previously described. Unless otherwise specified, extracellular solution contained (in mM) 90 NaCl, 3 KCl, 0.5 BaCl2, 0.01 EDTA, 10 HEPES, and was brought to pH 7.4 with NaOH. The oocytes were placed in a dual track recording chamber and gravity perfused with solution exchange controlled via a computer-driven 8-valve positioner (Digital MVP Valve). […] Recording electrodes were filled with 0.3 M KCl, and currents were recorded with membrane voltage held at −40 mV. To establish constitutive activity of recombinant receptors when compared to wild type receptors, we used the oocyte recording solution described above, but with 90 mM N-methyl-D-glucamine (NMDG) chloride replacing 90 mM NaCl. […] For Ca^2+ concentration-response curves, choline chloride was used to maintain equimolar concentrations of Cl^− ions in the extracellular solution across the changing concentrations of calcium chloride. All compounds used in this study for concentration-response oocyte recordings were dissolved in deionized water as 50–100 mM stock solutions. In some rescue pharmacology experiments, we substituted 1 mM CaCl2 for 0.5 mM BaCl2 to evaluate Ca^2+-dependent control of receptor responses.
Data are represented as mean ± SEM. Statistical significance of logEC50 or logIC50 was determined by one-way analysis of variance (ANOVA) with a Dunnett’s multiple comparisons post-hoc test with a significance threshold of P < 0.05. Sample sizes were adjusted so that the power to detect an effect size of 1 was > 0.9 (GPower 3.1). All error bars on figures represent the SEM.

[Ca+2] [Ca^2+]
Effect on constitutive current, in words: weakly inhibited; also recorded: complete loss of Ca^2+ potentiation | EC50 (modulation of constitutive current, inhibited by Ca2+ (not potentiated), read-out: Ca2+ EC50 [95% CI]): 5.6 mM | Ca2+ % Max (NMDG+ − Na+) Mean ± SEM (normalized to NMDG+ − Na+ difference current): 70 ± 2.0 (15) %

N[C@H](CO)C(=O)O [D-serine]
Effect on constitutive current, in words: modestly reduced D-serine potency | D-serine % Max (NMDG+ − Na+) Mean ± SEM (percent of constitutive leak current (NMDG+/Na+ difference current)): 60 ± 2.2 (15) %
